Laboratory results reported in patent US9452159B2, “6-aminopyridine-3-ol derivatives or pharmaceutically acceptable salts thereof, and pharmaceutical composition containing same as active ingredients for preventing or treating diseases caused by angiogenesis” (Research Cooperation Foundation of Yeungnam University, priority 2011, dated 2016).
Where two headings read alike, the source gives them in different places.

Columns and labels:
[1] = test system: chorioallantoic membrane (CAM); assay: Chorioallantoic membrane (CAM) assay, VEGF-derived angiogenesis; format: in vivo, chick; conditions: for IC50: CAM treated with various concentrations, FIG. 3, read-out: IC50 with respect to angiogenesis inhibition; for angiogenesis inhibiting effects: VEGF-treated CAM, summary of Table 1, 6a compared with SU4312, batimastat and α-tocopherol
Description: To examine angiogenesis inhibiting effects in vivo, CAM assay was performed (Nguyen Metal., Microvascular Res., 47, pp 31-40, 1994). Hen's fertile eggs were incubated at a temperature of 37° C. and in relative humidity 55%, and on the 10th day after the incubation, an air sac site was punched by using a hypodermic needle (Greencross Medical Science Corp, Korea) to form a first hole, and then, a planar site of the fertile egg where a window was to be formed was punched to form a second hole. Air was removed through the first pore of the air sac site to allow the chorioallantoic membrane (CAM) to be separated from the shell of the fertile egg, and this site was cut by using a grinding wheel (Multipro 395JA, Dremel, Mexico) to form a window. […] Through the window, the filter disc was placed on blood vessels, which were then treated with the compounds each dissolved in dimethylsulfoxide (DMSO) and diluted with phosphate buffer solution (PBS) at various concentrations. 3 days after the treatment with the compounds, the CAM site with the filter disc placed thereon was separated, and then washed with a phosphate buffer solution, and an image thereof was obtained by using a stereomicroscope (Stemi SV6 stereomicroscope, Carl Zeiss, Germany) and image-Pro Plus software (Media Cybernetics; Silver Spring, Md., U.S.A.) to count the number of blood vessel branches, and the obtained results were assayed.

A549 lung cancer cells = assay: Oncogenesis-derived angiogenesis and tumor growth on CAM inoculated with A549 lung cancer cells; format: in vivo, chick; conditions: A549 cells 1.5×10^6 cell/CAM, various concentrations, five days after inoculation; FIG. 4
Description: Hen's fertile eggs were incubated, and on the 9th day, a window was formed in the same manner as in Experimental Example 1, and instead of a disc, A549 lung cancer cells were mixed with matrigel at a ratio of 1:1, and then the cells were treated with Compounds 6a and 6i and inoculated at a concentration of 1.5×10^6 cell/CAM. Five days after the inoculation, the CAM site where tumors developed was separated and washed with a phosphate buffer solution, and then, an image thereof was obtained by using a stereomicroscope (Stemi SV6 stereomicroscope, Carl Zeiss, Germany) and Image-Pro Plus software (Media Cybernetics; Silver Spring, Md., U.S.A.) to count the number of blood vessel branches, and the results were assayed.

HUVEC cells = assay: VEGF-derived ROS scavenging ability (DCF-DA fluorescence); format: cell-based; conditions: HUVEC pretreated 3 hours, then VEGF 15 minutes, compared to VEGF, FIG. 5
Description: (§1) DCF-DA (2′,7′-dichlorofluorescein diacetate) was used to measure a VEGF-derived ROS scavenging ability in HUVEC cells. When ROS exists in cells, DCF-DA is oxidized into fluorescent DCF, thereby emitting green fluorescent light. 1×10^5 concentration of HUVEC was spread onto a 0.2% gelatin coated 8-well plate, and then incubated for 24 hours. The cells were pretreated with Compounds 6a or 6i for 3 hours and then, treated with VEGF for 15 minutes, and then, washed three times with PBS (pH 7.4), and then, 10 μM of DCF-DA was added to EBM-2 medium, which was then placed in dark condition for 30 minutes. Then, the cells were washed three times with PBS, and a degree of intracellular fluorescence was measured by using a fluorescent microscope.

[2] = test system: ARPE-19 (adult retinal pigment epithelium-19) cell line; assay: Macular degeneration risk factor-derived ROS scavenging ability; format: cell-based; conditions: compared to a control
Description: as §1
The same experiment as used in Experimental Example 3 was performed, except that ARPE-19 (adult retinal pigment epithelium-19) cell line was treated with 4-hydroxynonenal (4-HNE) or angiotensin II (Ang II), which are macular degeneration risk factors, to identify ROS scavenging ability of Compound 6a.

Male Balb/c mice = assay: Toxicity test, single oral administration; format: in vivo; conditions: once, 0.5 g/kg, 1 g/kg and 2 g/kg in 0.5% methylcellose, 7 days
Description: Male Balb/c mice were orally administered once with Compound 6a suspended in a 0.5% methylcellose solution, in a dosage of each of 0.5 g/kg, 1 g/kg, and 2 g/kg, and then, for 7 days, the survival rate and body weight of the mice were measured.
After the administration, the death, clinical symptoms, and body weight change of the mice were analyzed, and a hematological examination and a blood biochemical examination were performed. Then, the autopsy of the mice was performed, and abnormality of abdominal cavity organs and thoracic cavity organs was examined.

Cc1nc(Nc2ccc([N+](=O)[O-])cc2)c(C)c(C)c1O [Compound 6i, 2,4,5-trimethyl-6-((4-nitrophenyl)amino)pyridin-3-ol]
inhibition in vivo at 1 µM ([1]; Gallus gallus, 72 h, VEGF (50 ng/CAM) + 3.0 ng/CAM, 1.0 μM, 3 days after treatment, read-out: Inhibition ratio): 74.9 ± 4.9%
IC50 ([1]; Gallus gallus): 1.8 nM
Number of blood vessel branches/main blood vessel ([1]; VEGF (50 ng/CAM) + 3.0 ng/CAM, 1.0 μM, 3 days after treatment): 26.3 ± 1.6^8
oncogenesis-derived angiogenesis (A549 lung cancer cells): inhibited
tumor growth (A549 lung cancer cells): inhibited
degree of intracellular fluorescence (VEGF-derived ROS) (HUVEC cells): substantial decrease

Cc1nc(NCc2ccccc2)c(C)c(C)c1O [Compound 6f, 6-(benzylamino)-2,4,5-trimethylpyridin-3-ol]
inhibition in vivo at 1.2 µM ([1]; Gallus gallus, 72 h, VEGF (50 ng/CAM) + 3.0 ng/CAM, 1.2 μM, 3 days after treatment, read-out: Inhibition ratio): 56.7 ± 16.8%
Number of blood vessel branches/main blood vessel ([1]; VEGF (50 ng/CAM) + 3.0 ng/CAM, 1.2 μM, 3 days after treatment): 25.8 ± 3.2^8

CCCCCCCCCCCCCCCCNc1nc(C)c(O)c(C)c1C [Compound 6c, 6-(hexadecylamino)-2,4,5-trimethylpyridin-3-ol]
inhibition in vivo at 0.8 µM ([1]; Gallus gallus, 72 h, VEGF (50 ng/CAM) + 3.0 ng/CAM, 0.8 μM, 3 days after treatment, read-out: Inhibition ratio): 30.1 ± 20%
Number of blood vessel branches/main blood vessel ([1]; VEGF (50 ng/CAM) + 3.0 ng/CAM, 0.8 μM, 3 days after treatment): 30.8 ± 3.8^8

Cc1nc(N)c(C)c(C)c1O [Compound 6a, 6-amino-2,4,5-trimethylpyridin-3-ol]
inhibition in vivo at 0.1 µM ([1]; Gallus gallus, 72 h, VEGF (50 ng/CAM) + 0.15 ng/CAM, 0.1 μM, 3 days after treatment, read-out: Inhibition ratio): 64 ± 8.8%
inhibition in vivo at 1 µM ([1]; Gallus gallus, 72 h, VEGF (50 ng/CAM) + 1.5 ng/CAM, 1 μM, 3 days after treatment, read-out: Inhibition ratio): 76.3 ± 5.2%
IC50 ([1]; Gallus gallus): 2 nM
Number of blood vessel branches/main blood vessel ([1]; VEGF (50 ng/CAM) + 0.15 ng/CAM, 0.1 μM, 3 days after treatment): 28 ± 3.3^8
Number of blood vessel branches/main blood vessel ([1]; VEGF (50 ng/CAM) + 1.5 ng/CAM, 1 μM, 3 days after treatment): 23.3 ± 2.0^8
angiogenesis inhibiting effects [1]: excellent angiogenesis inhibiting effects even at low concentration
degree of intracellular fluorescence (ROS), 4-hydroxynonenal (4-HNE) ([2]; ARPE-19 treated with 4-HNE, FIG. 7): substantially decreased
degree of intracellular fluorescence (ROS), angiotensin II (Ang II) ([2]; ARPE-19 treated with Ang II, FIG. 6): substantially decreased
oncogenesis-derived angiogenesis (A549 lung cancer cells): inhibited
tumor growth (A549 lung cancer cells): inhibited
body weight change, blood examination, blood biochemical examination, and autopsy results (Male Balb/c mice): no toxicity change
clinical symptoms (Male Balb/c mice): did not have distinguishing clinical symptoms
death (Male Balb/c mice): did not die
degree of intracellular fluorescence (VEGF-derived ROS) (HUVEC cells): substantial decrease

Cc1nc(N2CCOCC2)c(C)c(C)c1O [Compound 6o, 2,4,5-trimethyl-6-morpholinopyridin-3-ol]
inhibition in vivo at 1 µM ([1]; Gallus gallus, 72 h, VEGF (50 ng/CAM) + 2.0 ng/CAM, 1.0 μM, 3 days after treatment, read-out: Inhibition ratio): 59 ± 11%
Number of blood vessel branches/main blood vessel ([1]; VEGF (50 ng/CAM) + 2.0 ng/CAM, 1.0 μM, 3 days after treatment): 28.8 ± 3.7^8

Cc1nc(Nc2ccc3c(c2)OCO3)c(C)c(C)c1O [Compound 6k, 6-(benzo[d][1,3]dioxol-5-ylamino)-2,4,5-trimethylpyridin-3-ol]
inhibition in vivo at 1.1 µM ([1]; Gallus gallus, 72 h, VEGF (50 ng/CAM) + 3.0 ng/CAM, 1.1 μM, 3 days after treatment, read-out: Inhibition ratio): 62.4 ± 11.6%
Number of blood vessel branches/main blood vessel ([1]; VEGF (50 ng/CAM) + 3.0 ng/CAM, 1.1 μM, 3 days after treatment): 25.8 ± 4.3^8
angiogenesis inhibiting effects [1]: excellent angiogenesis inhibiting effects
